Assay: xn = mol fraction of the nth substance listed
Settings: 101 kPa

O + CS(=O)(=O)[O-].C[N+](C)(CCO)CCO
x2 = 0
Settings | viscosity [mPa·s]
298.15 K | 0.877
303.15 K | 0.789
313.15 K | 0.654

CS(=O)(=O)[O-].C[N+](C)(CCO)CCO + O
viscosity [mPa·s]
Settings | x1 = 0.0989 | x1 = 0.1991 | x1 = 0.2989 | x1 = 0.3971 | x1 = 0.4797 | x1 = 0.5983 | x1 = 0.6984 | x1 = 0.7942 | x1 = 0.8928 | x1 = 1
298.15 K | 4.55 | – | 36.9 | 77.5 | 148 | 288 | 460 | 796 | 1034 | 1495
303.15 K | 3.91 | 12.42 | – | 60.6 | 113 | 212 | – | 558 | 718 | 1021
308.15 K | 3.45 | 10.56 | 24.6 | 48.3 | 78.7 | 160 | 246 | 403 | 510 | 716
313.15 K | 3.06 | 9.06 | 20.5 | 39 | – | 123.5 | – | 296 | 374 | 513
318.15 K | 2.74 | 7.85 | – | 32.1 | – | 86.9 | 142.8 | 223 | 279 | –
323.15 K | 2.51 | – | 14.75 | 26.7 | – | 69.4 | – | 171 | 212 | –

Reference: a compilation of properties of binary mixtures (doi:10.1007/s10953-020-00968-2)
